Measurements published in patent publication US12345641B2, “Fluorescence quenching immunoassay” (IDEXX Laboratories, Inc., priority 2020, dated 2025).
No end group written: not given here.

What was measured:
[1] = Absorption and emission spectra of fluoresceins and SDMA conjugates (Example 33); assay type: physicochemical; details: PBS buffer
Description: The maximum absorption of fluorescein (Fl) in PBS buffer is at 489 nm and the maximum fluorescence emission is at 515 nm. When the fluorescein molecule is conjugated with an SDMA molecule via a —CH2NH— linker (i.e., to provide SDMA-Fl), its maximum absorption and emission are shifted to 495 nm and 525 nm, respectively. When the fluorescein molecule is substituted by fluorine at the 2′ and 7′ positions (i.e., to provide DFF) there is no any change in the maximum absorption and emission compared to unsubstituted fluorescein. When the fluorescein molecule is substituted by chloride at the 2′ and 7′ positions (i.e., to provide DCF) the maximum absorption and emission are red-shifted to 500 nm and 525 nm, respectively. Also conjugating DFF or DCF to SDMA via a —CH2NH— linker (i.e., to provide SDMA-DFF and SDMA DCF, respectively) results in the maximum absorption and emission being red-shifted. The maximum absorption and emission wavelengths of fluorescein (FL), 2′,7′-difluorofluorescien (DFF), 2′,7′-dichlorofluorescien (DCF), and their conjugates with SDMA via a —CH2NH— linker (i.e., SDMA-Fl (i.e., structure A3), SDMA-DFF, and SDMA-DCF) are listed in the Table provided below. The absorption spectra of DFF, SDMA-DFF, DCF, SDMA-DCF, Fl, and SDMA-FL are depicted in FIG. 25A and the emission spectra of SDMA-DFF, SDMA-DCF, Fl, and SDMA-FL are depicted in FIG. 25B.

anti-T4 antibody = assay: Maximum percentage fluorescence quenching of T2-F, T3-F, T4-F by anti-T4 antibody with and without quencher label (Example 27 table); assay type: binding
Protocol: In another experiment, tracer T2-F, T3-F, or T4-F was dissolved in DMSO to provide a DMSO solution at a tracer concentration of 1 mM. The DMSO solution was then diluted with phosphate buffered saline (“PBS”) to provide a stock solution of each tracer at a concentration of 10 μM. Monoclonal anti-T4-Mab or anti-T4-Mab conjugated to a quencher (Cy3-Ab, IRdyeQC1-Ab, Cy5-Ab, BHQ1-Ab) were serially diluted in PBS to provide solutions having an Anti-T4-Mab or anti-T4-Mab conjugated to quencher at concentration ranging from 0 to 2 μM. In a 96 well black assay plate containing the serially diluted Anti-T4-Mab or anti-T4-Mab conjugated to quencher (95 μL) was added the tracer T2-F, T3-F, or T4-F solution (5 μL), mixed well, and incubated for 30 min and the fluorescence intensities then recorded at an excitation wavelength of 485 nm and an emission wavelength of 520 nm. The results of maximum percentage fluorescence quenching for different tracers and quencher-modified antibodies are provided in the following Table: […]

anti-T4-Mab = assay: Fluorescence of T3 tracers and anti-T4-Mab in the presence of T4 (Example 20); assay type: binding; details: PBS, tracer and antibody equimolar
Protocol: Similar solutions were prepared and the fluorescence measured except that the T3-F was replaced with T3-5-F, T3-E-F and T3-FITC.

[2] = system: Monoclonal anti-NT-proBNP antibody (ADX-15 Mab); assay: Fluorescence quenching of canine NT-proBNP peptide-Fl/DFF conjugates by anti-NT-proBNP Mab and Ab-BHQ10 (Example 52); assay type: binding; details: for Percentage Fluorescence Quenching, DFF Conjugate, Ab-BHQ10 / Percentage Fluorescence Quenching, DFF Conjugate, Ab: NT-proBNP peptide-difluorofluorescein conjugate; for Percentage Fluorescence Quenching, DFF Conjugate, Ab-BHQ10 / Percentage Fluorescence Quenching, F1 Conjugate, Ab-BHQ10: mAb-BHQ10; for Percentage Fluorescence Quenching, DFF Conjugate, Ab-BHQ10 / Percentage Fluorescence Quenching, DFF Conjugate, Ab / Percentage Fluorescence Quenching, F1 Conjugate, Ab-BHQ10: molar ratio of 1:1; for Percentage Fluorescence Quenching, DFF Conjugate, Ab-BHQ10 / Percentage Fluorescence Quenching, DFF Conjugate, Ab / Percentage Fluorescence Quenching, F1 Conjugate, Ab / Percentage Fluorescence Quenching, F1 Conjugate, Ab-BHQ10: No = No Quenching; for Percentage Fluorescence Quenching, F1 Conjugate, Ab / Percentage Fluorescence Quenching, F1 Conjugate, Ab-BHQ10: NT-proBNP peptide-fluorescein conjugate; for Percentage Fluorescence Quenching, F1 Conjugate, Ab: Ab/Conjugate molar ratio of 1:1; for quenching of peptide-Fl or -DFF conjugates upon addition of antibody or antibody-BHQ10: any molar ratio from 1:1 to 8:1; for fluorescence quenching: ratio of 8:1; for fluorescence quenching reached (up to) by anti-NT-proBNP antibody: unmodified antibody, titration 0 to 800 nM
Protocol: NT-proBNP peptide-fluorescein (Fl) or -difluorofluorescein (DFF) conjugates were dissolved in DMSO (0.4 mM) and diluted with PBS to provide a stock solution (100 nM). Monoclonal anti-NT-proBNP antibody (ADX-15 Mab, IDEXX Laboratories Inc. of Westbrook, ME) (6.84 mg/ml) was serially diluted in PBS buffer to provide solutions having an antibody concentration ranging from 0 to 800 nM in PBS. In a 96 well black assay plate containing the serially diluted antibody solution (50 μL) was added the P1-Fl or P1-DFF, or other peptide-Fl or Peptide-DFF solution (50 μL), mixed well, incubated for 30 min and the fluorescence intensities recorded (excitation at 485 nm and emission at 520 nm). The results are provided in FIG. 47, FIG. 48, and Table 2.

anti-CysB Mab = assay: Peptide/full length canine CysB protein dose response in Tris buffer and serum (Example 51); assay type: binding, mouse; details: for fluorescence intensity as a function of CysB peptide concentration: peptide 0 to 3200 nM added to mixture of antibody and P6-Fl or P6-DFF, Tris buffer
Protocol: A mixture of CysB P6-Fl or P6-DFF in Tris buffer with 0.1% Tween 20 (200 nM, 25 μL) and anti-Cys-Mab in Tris buffer with 0.1% Tween 20 (400 nM, 25 μL) was incubated at room temperature for 30 min in the wells of a 96 well black assay plate. A series of CysB peptides P6, P7, and P14 standard solutions having peptide concentrations ranging from 0 to 3200 nM (50 μL) were then added to the mixtures of the P6-Fl or P6-DFF and anti-CysB Mab in Tris Buffer. The plate was then incubated for 30 min at room temperature and the fluorescence intensities recorded at an excitation of 485 nm and an emission of 520 nm. The results are shown in FIG. 43, FIG. 44, FIG. 45, and FIG. 46.

[3] = system: Monoclonal anti-CysB antibody (7C2); assay: Fluorescence quenching of canine CysB peptide-Fl/DFF conjugates by anti-CysB Mab or Mab-BHQ10 (Example 51); assay type: binding, mouse
Protocol: CysB peptide-fluorescein (Fl) or -difluorofluorescein (DFF) conjugates were dissolved in DMSO (0.5 mM) and diluted with Tris Buffer ([…] at pH8.0) to provide a stock solution (100 nM). Monoclonal anti-CysB antibody (7C2, raised against a peptide having the amino acid sequence of SEQ ID NO: 14) (8 mg/ml) was serially diluted in PBS buffer to provide solutions having an Anti-CysB-Mab concentration ranging from 0 to 800 nM in Tris buffer (50 mM at pH 8.0 with 0.5% sarkosyl (sodium lauroyl sarcosinate)). In a 96-well black assay plate containing the serially diluted Anti-CysB-Mab solution (50 μL) was added the peptide-Fl or peptide-DFF solution (50 μL), mixed well, incubated for 30 min and the fluorescence intensities recorded. The results are provided in FIG. 38, 39, 40, and Table 1.

O=C1OC2(c3cc(Cl)c(O)cc3Oc3cc(O)c(Cl)cc32)c2ccccc21 [DCF, 2′,7′-dichlorofluorescien]
Max Absorption [1]: 500 nm
Max Emision [1]: 525 nm

O=C1OC2(c3cc(F)c(O)cc3Oc3cc(O)c(F)cc32)c2ccccc21 [DFF, 2′,7′-difluorofluorescien]
Max Absorption [1]: 489 nm
Max Emision [1]: 515 nm

O=C(O)c1ccccc1-c1c2ccc(=O)cc-2oc2cc(O)ccc12 [Fl, fluorescein]
Max Absorption [1]: 489 nm
Max Emision [1]: 515 nm
Max Absorption ([1]; listed as FI): 483 nm

CNC(=NCCCC(N)C(=O)NCc1c(O)c(Cl)cc2c(-c3ccccc3C(=O)O)c3cc(Cl)c(=O)cc-3oc12)NC (stereo not shown) [SDMA-DCF]
Max Absorption [1]: 510 nm
Max Emision [1]: 535 nm

O=C(O)c1ccccc1-c1c2ccc(=O)cc-2oc2c(CNC(Cc3cc(I)c(Oc4ccc(O)cc4)c(I)c3)C(=O)O)c(O)ccc12 (stereo not shown) [T2-F]
Percentage of fluorescence quenching, BHQ1-Ab (anti-T4 antibody; anti-T4-Mab conjugated to BHQ1): 11%
Percentage of fluorescence quenching, Cy5-Ab (anti-T4 antibody; anti-T4-Mab conjugated to Cy5): 16%
Percentage of fluorescence quenching, IRdyeQC1-Ab (anti-T4 antibody; anti-T4-Mab conjugated to IRdyeQC1): 8%
Percentage of fluorescence quenching, Ab (anti-T4 antibody; anti-T4-Mab without quencher): 22%

O=C(NC(Cc1cc(I)c(Oc2ccc(O)c(I)c2)c(I)c1)C(=O)O)c1ccc(-c2c3ccc(=O)cc-3oc3cc(O)ccc23)c(C(=O)O)c1 (stereo not shown) [T3-5-F, T3-5-Fluorescein]
fluorescence quenching by anti-T4-Mab (anti-T4-Mab): not quenched

O=C(O)c1ccccc1-c1c2ccc(=O)cc-2oc2c(CNCCNC(Cc3cc(I)c(Oc4ccc(O)c(I)c4)c(I)c3)C(=O)O)c(O)ccc12 (stereo not shown) [T3-E-F, T3-Ethyl-Fluorescein]
fluorescence quenching by anti-T4-Mab (anti-T4-Mab): quenched

O=C(O)c1cc(NC(=S)NC(Cc2cc(I)c(Oc3ccc(O)c(I)c3)c(I)c2)C(=O)O)ccc1-c1c2ccc(=O)cc-2oc2cc(O)ccc12 (stereo not shown) [T3-FITC]
fluorescence quenching by anti-T4-Mab (anti-T4-Mab): not quenched

AEQLAL [P2]
Percentage Fluorescence Quenching, DFF Conjugate, Ab-BHQ10 [2]: No
Percentage Fluorescence Quenching, DFF Conjugate, Ab [2]: No
Percentage Fluorescence Quenching, F1 Conjugate, Ab [2]: No
Percentage Fluorescence Quenching, F1 Conjugate, Ab-BHQ10 [2]: No
quenching of peptide-Fl or -DFF conjugates upon addition of antibody or antibody-BHQ10 [2]: no quenching

EPLHRS [P3]
Percentage Fluorescence Quenching, DFF Conjugate, Ab-BHQ10 [2]: No
Percentage Fluorescence Quenching, DFF Conjugate, Ab [2]: No
Percentage Fluorescence Quenching, F1 Conjugate, Ab [2]: No
Percentage Fluorescence Quenching, F1 Conjugate, Ab-BHQ10 [2]: No
quenching of peptide-Fl or -DFF conjugates upon addition of antibody or antibody-BHQ10 [2]: no quenching

GHDELAYF [P7, canine CysB peptide]
fluorescence intensity as a function of CysB peptide concentration (anti-CysB Mab): a dose response was observed
Percentage Fluorescence Quenching, DFF Conjugate At 5-Position ([3]; CysB peptide conjugated to 5-position of difluorofluorescein, Ab/Conjugate ratio = 2/1): 5%
Percentage Fluorescence Quenching, F1 Conjugate At 5-Position ([3]; CysB peptide conjugated to 5-position of fluorescein, Ab/Conjugate ratio = 2/1): 5%

NT-proBNP P6-Fl: NT-proBNP peptide LEPLHRS conjugated to 5-position of fluorescein (also: conjugated to 5-position of fluorescein, peptide site not given here)
fluorescence quenching [2]: approximately 10%

P1-DFF: NT-proBNP peptide AEQLALEPLHRS conjugated to 5-position of DFF (also: conjugated to 5-position of DFF, peptide site not given here)
fluorescence quenching reached (up to) by anti-NT-proBNP antibody-BHQ10 [2]: approximately 65%
fluorescence quenching reached (up to) by anti-NT-proBNP antibody [2]: approximately 70%

P1-Fl: NT-proBNP peptide AEQLALEPLHRS conjugated to 5-position of fluorescein (also: conjugated to 5-position of fluorescein, peptide site not given here)
fluorescence quenching reached (up to) by anti-NT-proBNP antibody-BHQ10 [2]: 40%
fluorescence quenching reached (up to) by anti-NT-proBNP antibody [2]: 70%

P5-Fl: CysB peptide GELAYF conjugated to 5-position of fluorescein (also: conjugated to 5-position of fluorescein, peptide site not given here)
quenching of 4′-position conjugate compared with 5-position conjugate ([3]; anti-CysB mAb): higher quenching

P6-DFF: CysB peptide GDELAYF conjugated to 5-position of DFF (also: conjugated to 5-position of DFF, peptide site not given here)
Maximum quenching ([3]; anti-CysB-Mab, molar ratio of about 4:1): ~45%
fluorescence quenching [2]: approximately 10%

P6-Fl: CysB peptide GDELAYF conjugated to 5-position of fluorescein (also: conjugated to 5-position of fluorescein, peptide site not given here)
quenching by anti-CysB Mab-BHQ10 relative to un-modified mAb [3]: slightly higher
fluorescence quenching ([3]; molar ratio of antibody to P6-Fl of about 8:1, unmodified anti-CysB-Mab): ~30%

P7-Fl: CysB peptide GHDELAYF conjugated to 5-position of fluorescein (also: conjugated to 5-position of fluorescein, peptide site not given here)
fluorescence quenching relative to P6-Fl ([3]; anti-CysB-Mab): weaker quenching

YQTNKAKHDELAYF [P14]
fluorescence intensity as a function of CysB peptide concentration (anti-CysB Mab): a dose response was observed

B1: CysB full length protein: canine cystatin-B, SEQ ID NO: 1 (protein, listed as Canis familiaris)
chain: MMCGAPSASQPATADTQAIADQVKAQLEERENKKYTTFKAVTFRSQVVAGTPYFIKVQVDDDEFVHLRVFQSLPHENKPLALSSYQTNKAKHDELAYF
fluorescence intensity as a function of CysB full length protein concentration (anti-CysB Mab; added to mixture of antibody and tracer in the presence of varying concentrations of sarkosyl): a dose response was observed
dose response of CysB full length protein in serum (anti-CysB Mab; antibody or antibody-BHQ10 with P6-Fl or P6-DFF, sarkosyl (1%)): dose response was also observed
